From ChEMBL document CHEMBL4390652, “Design, biological evaluation and X-ray crystallography of nanomolar multifunctional ligands targeting simultaneously acetylcholinesterase and glycogen synthase kinase-3” (Eur J Med Chem, 2019) come the findings set out here.

Assay [1] concerns the target Insulin receptor-related protein (Homo sapiens) (UniProt P14616). The assay is described as follows: Binding affinity to wild-type human partial length INSRR (R950 to E1278 residues) expressed in bacterial expression system assessed as residual binding level at 10 uM by Kinomescan method relative to control.
Assay [2] relates to Epidermal growth factor receptor (Homo sapiens), P00533 [UNDEFINED MUTATION]. The assay is described as follows: Binding affinity to human partial length EGFR L747-E749del/A750P mutant expressed in bacterial expression system assessed as residual binding level at 10 uM by Kinomescan method relative to control.
Assay [3] concerns the target Cyclin-dependent kinase 2 (Homo sapiens) (UniProt P24941). In words: Binding affinity to wild-type human full length CDK2 (M1 to L298 residues) expressed in bacterial expression system assessed as residual binding level at 10 uM by Kinomescan method relative to control.
The target in assay [4] is Dual specificity protein kinase TTK (Homo sapiens) (UniProt P33981). In words: Binding affinity to wild-type human partial length TTK (N505 to V798 residues) expressed in bacterial expression system assessed as residual binding level at 10 uM by Kinomescan method relative to control.
The test system of assay [5] is Phosphatidylinositol 4,5-bisphosphate 3-kinase catalytic subunit alpha isoform (Homo sapiens), P42336 [Q546K]. The assay is described as follows: Binding affinity to human partial length PIK3CA Q546K mutant (R108 to N1068 residues) expressed in mammalian expression system assessed as residual binding level at 10 uM by Kinomescan method relative to control.
Assay [6] deals with Aurora kinase A (Homo sapiens) (UniProt O14965). The assay is described as follows: Binding affinity to wild-type human partial length AURKA (E122 to K401 residues) expressed in mammalian expression system assessed as residual binding level at 10 uM by Kinomescan method relative to control.
In assay [7] the target is Serine/threonine-protein kinase TAO1 (Homo sapiens) (UniProt Q7L7X3). In words: Binding affinity to wild-type human partial length TAOK1 (M1 to A320 residues) expressed in mammalian expression system assessed as residual binding level at 10 uM by Kinomescan method relative to control.
Serine/threonine-protein kinase TAO1 (Homo sapiens), sequence (Q7L7X3 whole entry, the tested form may be a part): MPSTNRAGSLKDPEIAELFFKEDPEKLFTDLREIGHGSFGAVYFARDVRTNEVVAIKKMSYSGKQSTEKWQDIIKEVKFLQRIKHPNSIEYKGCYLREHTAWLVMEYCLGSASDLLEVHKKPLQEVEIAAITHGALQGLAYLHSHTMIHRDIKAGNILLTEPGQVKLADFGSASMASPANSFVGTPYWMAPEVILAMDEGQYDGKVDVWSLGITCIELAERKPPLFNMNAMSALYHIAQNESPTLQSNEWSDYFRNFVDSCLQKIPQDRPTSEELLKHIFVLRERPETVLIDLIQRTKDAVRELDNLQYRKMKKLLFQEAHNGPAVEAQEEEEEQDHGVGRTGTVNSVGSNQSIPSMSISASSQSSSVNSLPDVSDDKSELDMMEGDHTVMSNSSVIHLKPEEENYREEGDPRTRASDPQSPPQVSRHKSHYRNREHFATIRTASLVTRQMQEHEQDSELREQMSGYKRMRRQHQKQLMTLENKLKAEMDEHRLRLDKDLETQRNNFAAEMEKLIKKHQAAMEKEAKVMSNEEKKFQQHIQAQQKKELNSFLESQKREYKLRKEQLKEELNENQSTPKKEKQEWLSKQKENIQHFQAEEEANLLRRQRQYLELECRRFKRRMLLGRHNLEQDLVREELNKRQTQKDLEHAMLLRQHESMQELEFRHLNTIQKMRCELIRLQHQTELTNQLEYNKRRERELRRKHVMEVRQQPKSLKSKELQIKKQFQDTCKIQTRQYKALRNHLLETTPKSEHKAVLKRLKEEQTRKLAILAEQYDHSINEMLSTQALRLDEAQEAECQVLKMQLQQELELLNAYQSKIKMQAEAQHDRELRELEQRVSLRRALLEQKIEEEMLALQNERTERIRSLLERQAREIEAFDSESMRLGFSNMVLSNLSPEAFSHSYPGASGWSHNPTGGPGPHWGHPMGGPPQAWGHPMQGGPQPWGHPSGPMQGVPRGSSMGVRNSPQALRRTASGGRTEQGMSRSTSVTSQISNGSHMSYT
Assay [8] has as its system Mast/stem cell growth factor receptor Kit (Homo sapiens), P10721 [UNDEFINED MUTATION]. In words: Binding affinity to human partial length KIT V559D/V654 double mutant (Y545 to D952 residues) expressed in bacterial expression system assessed as residual binding level at 10 uM by Kinomescan method relative to control.
Assay [9] addresses Protein-tyrosine kinase 2-beta (Homo sapiens) (UniProt Q14289). The assay is described as follows: Binding affinity to wild-type human full length PYK2 (M1 to E967 residues) expressed in bacterial expression system assessed as residual binding level at 10 uM by Kinomescan method relative to control.
Assay [10] addresses Serine/threonine-protein kinase BRSK2 (Homo sapiens) (UniProt Q8IWQ3). The assay is described as follows: Binding affinity to wild-type human full length BRSK2 (M1 to L674 residues) expressed in bacterial expression system assessed as residual binding level at 10 uM by Kinomescan method relative to control.
In assay [11] the test system is Tyrosine-protein kinase ABL1 (Homo sapiens), P00519 [F317I]. In words: Binding affinity to human non-phosphorylated ABL1 F317I mutant (S229 to K512 residues) expressed in mammalian expression system assessed as residual binding level at 10 uM by Kinomescan method relative to control.
Tyrosine-protein kinase ABL1 (Homo sapiens), P00519 [F317I], sequence (P00519 whole entry F317I, the tested form may be a part): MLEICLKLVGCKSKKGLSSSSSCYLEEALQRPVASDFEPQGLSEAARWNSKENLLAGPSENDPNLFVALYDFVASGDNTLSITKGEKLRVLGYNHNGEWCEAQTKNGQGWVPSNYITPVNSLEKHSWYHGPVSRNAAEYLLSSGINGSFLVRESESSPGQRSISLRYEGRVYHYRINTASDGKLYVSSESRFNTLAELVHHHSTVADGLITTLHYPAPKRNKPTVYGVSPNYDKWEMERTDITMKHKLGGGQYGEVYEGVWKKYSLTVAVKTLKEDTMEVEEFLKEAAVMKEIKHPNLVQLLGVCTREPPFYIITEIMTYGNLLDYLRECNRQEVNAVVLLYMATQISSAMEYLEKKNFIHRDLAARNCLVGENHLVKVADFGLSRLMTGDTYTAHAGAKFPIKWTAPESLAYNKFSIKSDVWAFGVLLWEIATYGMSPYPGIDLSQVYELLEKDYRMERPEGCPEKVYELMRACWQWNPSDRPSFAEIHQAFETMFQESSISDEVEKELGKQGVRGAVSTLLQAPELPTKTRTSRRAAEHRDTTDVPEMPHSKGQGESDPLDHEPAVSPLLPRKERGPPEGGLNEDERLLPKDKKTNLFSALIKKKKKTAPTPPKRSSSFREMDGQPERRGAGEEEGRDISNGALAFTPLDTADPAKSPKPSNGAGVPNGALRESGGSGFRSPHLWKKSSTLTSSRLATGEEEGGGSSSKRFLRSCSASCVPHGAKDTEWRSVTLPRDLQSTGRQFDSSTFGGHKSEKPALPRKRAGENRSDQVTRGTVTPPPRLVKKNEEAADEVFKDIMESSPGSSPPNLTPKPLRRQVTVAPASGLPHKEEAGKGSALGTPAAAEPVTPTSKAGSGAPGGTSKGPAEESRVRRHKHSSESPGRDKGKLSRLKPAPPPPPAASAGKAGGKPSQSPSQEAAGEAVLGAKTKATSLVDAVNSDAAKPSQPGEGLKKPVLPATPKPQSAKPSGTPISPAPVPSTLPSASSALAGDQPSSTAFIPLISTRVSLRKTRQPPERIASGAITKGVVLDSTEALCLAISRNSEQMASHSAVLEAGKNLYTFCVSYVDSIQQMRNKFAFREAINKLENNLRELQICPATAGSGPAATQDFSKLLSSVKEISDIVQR
Assay [12] deals with Protein-tyrosine kinase 6 (Homo sapiens) (UniProt Q13882). In words: Binding affinity to wild-type human partial length BRK (L166 to T451 residues) expressed in bacterial expression system assessed as residual binding level at 10 uM by Kinomescan method relative to control.
For assay [13], the target named is Serine/threonine-protein kinase Nek3 (Homo sapiens) (UniProt P51956). In words: Binding affinity to wild-type human full length NEK3 (M1 to R506 residues) expressed in mammalian expression system assessed as residual binding level at 10 uM by Kinomescan method relative to control.
Assay [14] deals with ALK tyrosine kinase receptor (Homo sapiens), Q9UM73 [L1196M]. The assay is described as follows: Binding affinity to wild-type human partial length ALK L1196M mutant (I1088 to E1409 residues) expressed in mammalian expression system assessed as residual binding level at 10 uM by Kinomescan method relative to control.
The target in assay [15] is Fibroblast growth factor receptor 3 (Homo sapiens) (UniProt P22607). The assay is described as follows: Binding affinity to wild-type human partial length FGFR3 (R442 to S771 residues) expressed in bacterial expression system assessed as residual binding level at 10 uM by Kinomescan method relative to control.
Assay [16] deals with Phosphatidylinositol 3-kinase C2 domain-containing subunit gamma (Homo sapiens) (UniProt O75747). In words: Binding affinity to wild-type human partial length PIK3C2G (M1 to I1446 residues) expressed in mammalian expression system assessed as residual binding level at 10 uM by Kinomescan method relative to control.
Assay [17] concerns the target cAMP-dependent protein kinase catalytic subunit alpha (Homo sapiens) (UniProt P17612). In words: Binding affinity to wild-type human partial length PKAC-alpha (G10 to F351 residues) expressed in bacterial expression system assessed as residual binding level at 10 uM by Kinomescan method relative to control.
The target in assay [18] is Calcium/calmodulin-dependent protein kinase type II subunit delta (Homo sapiens) (UniProt Q13557). In words: Binding affinity to wild-type human partial length CAMK2D (M1 to E329 residues) expressed in bacterial expression system assessed as residual binding level at 10 uM by Kinomescan method relative to control.
Calcium/calmodulin-dependent protein kinase type II subunit delta (Homo sapiens), sequence (Q13557 whole entry, the tested form may be a part): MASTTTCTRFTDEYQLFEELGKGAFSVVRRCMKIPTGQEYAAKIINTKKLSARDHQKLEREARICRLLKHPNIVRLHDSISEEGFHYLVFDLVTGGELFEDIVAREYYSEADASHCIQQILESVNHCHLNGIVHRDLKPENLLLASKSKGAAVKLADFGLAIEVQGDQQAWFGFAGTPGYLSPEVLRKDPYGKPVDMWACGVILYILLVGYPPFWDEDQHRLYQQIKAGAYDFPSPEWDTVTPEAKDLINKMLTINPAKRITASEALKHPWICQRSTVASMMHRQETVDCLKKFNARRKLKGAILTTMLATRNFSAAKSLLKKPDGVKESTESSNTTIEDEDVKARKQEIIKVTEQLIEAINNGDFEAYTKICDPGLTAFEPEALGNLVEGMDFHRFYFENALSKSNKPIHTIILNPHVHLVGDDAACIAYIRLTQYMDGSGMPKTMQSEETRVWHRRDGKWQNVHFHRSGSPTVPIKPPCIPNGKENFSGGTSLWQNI
Assay [19] deals with Maternal embryonic leucine zipper kinase (Homo sapiens) (UniProt Q14680). The assay is described as follows: Binding affinity to wild-type human full length MELK (M1 to V651 residues) expressed in bacterial expression system assessed as residual binding level at 10 uM by Kinomescan method relative to control.
Maternal embryonic leucine zipper kinase (Homo sapiens), sequence (Q14680 whole entry, looked up, the tested form may be a part): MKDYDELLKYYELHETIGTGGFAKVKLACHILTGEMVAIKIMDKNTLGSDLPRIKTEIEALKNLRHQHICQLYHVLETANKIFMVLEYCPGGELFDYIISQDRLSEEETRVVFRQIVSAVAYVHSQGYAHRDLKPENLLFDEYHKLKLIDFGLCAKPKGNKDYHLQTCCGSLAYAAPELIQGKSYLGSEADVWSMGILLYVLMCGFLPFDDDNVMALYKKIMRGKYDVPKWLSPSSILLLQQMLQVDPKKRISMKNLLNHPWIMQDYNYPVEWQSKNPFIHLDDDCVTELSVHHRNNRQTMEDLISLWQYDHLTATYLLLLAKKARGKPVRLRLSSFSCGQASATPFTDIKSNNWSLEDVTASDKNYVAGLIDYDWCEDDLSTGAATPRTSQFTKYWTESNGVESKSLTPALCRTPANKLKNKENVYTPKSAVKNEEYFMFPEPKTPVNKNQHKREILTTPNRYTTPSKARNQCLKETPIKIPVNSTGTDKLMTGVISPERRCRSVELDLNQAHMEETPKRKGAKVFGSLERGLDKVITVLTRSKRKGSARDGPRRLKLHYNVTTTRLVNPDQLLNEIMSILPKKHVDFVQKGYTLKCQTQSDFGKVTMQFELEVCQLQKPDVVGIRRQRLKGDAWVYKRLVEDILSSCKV
The target of assay [20] is Leucine-rich repeat serine/threonine-protein kinase 2 (Homo sapiens) (UniProt Q5S007). In words: Binding affinity to wild-type human partial length LRRK2 (H970 to E2527 residues) expressed in mammalian expression system assessed as residual binding level at 10 uM by Kinomescan method relative to control.
For assay [21], the target named is Phosphatidylinositol 5-phosphate 4-kinase type-2 beta (Homo sapiens) (UniProt P78356). The assay is described as follows: Binding affinity to wild-type human full length PIP5K2B (M1 to T416 residues) expressed in bacterial expression system assessed as residual binding level at 10 uM by Kinomescan method relative to control.
Assay [22] concerns the target Mitogen-activated protein kinase 8 (Homo sapiens) (UniProt P45983). In words: Binding affinity to wild-type human full length JNK1 (M1 to Q384 residues) expressed in mammalian expression system assessed as residual binding level at 10 uM by Kinomescan method relative to control.
For assay [23], the target named is Tyrosine-protein kinase Tec (Homo sapiens) (UniProt P42680). The assay is described as follows: Binding affinity to wild-type human partial length TEC (L341 to D620 residues) expressed in bacterial expression system assessed as residual binding level at 10 uM by Kinomescan method relative to control.
Assay [24] deals with Serine/threonine-protein kinase Nek2 (Homo sapiens) (UniProt P51955). The assay is described as follows: Binding affinity to wild-type human partial length NEK2 (M1 to K309 residues) expressed in bacterial expression system assessed as residual binding level at 10 uM by Kinomescan method relative to control.
Serine/threonine-protein kinase Nek2 (Homo sapiens), sequence (P51955 whole entry, the tested form may be a part): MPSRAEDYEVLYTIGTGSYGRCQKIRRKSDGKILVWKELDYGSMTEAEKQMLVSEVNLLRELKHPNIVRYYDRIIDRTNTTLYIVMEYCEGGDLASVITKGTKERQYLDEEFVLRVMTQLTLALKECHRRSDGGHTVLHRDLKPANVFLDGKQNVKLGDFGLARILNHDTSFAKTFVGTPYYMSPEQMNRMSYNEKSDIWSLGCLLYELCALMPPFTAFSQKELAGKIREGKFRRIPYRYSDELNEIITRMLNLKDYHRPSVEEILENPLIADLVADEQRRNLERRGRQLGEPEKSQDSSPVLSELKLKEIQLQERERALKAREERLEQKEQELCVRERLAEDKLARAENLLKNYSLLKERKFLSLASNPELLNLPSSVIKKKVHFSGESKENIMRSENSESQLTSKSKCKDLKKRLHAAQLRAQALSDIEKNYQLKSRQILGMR

The structures appear in SMILES notation.

Mast/stem cell growth factor receptor Kit (Homo sapiens), P10721 [UNDEFINED MUTATION], sequence (P10721 whole entry, looked up, stated change not applied, the tested form may be a part): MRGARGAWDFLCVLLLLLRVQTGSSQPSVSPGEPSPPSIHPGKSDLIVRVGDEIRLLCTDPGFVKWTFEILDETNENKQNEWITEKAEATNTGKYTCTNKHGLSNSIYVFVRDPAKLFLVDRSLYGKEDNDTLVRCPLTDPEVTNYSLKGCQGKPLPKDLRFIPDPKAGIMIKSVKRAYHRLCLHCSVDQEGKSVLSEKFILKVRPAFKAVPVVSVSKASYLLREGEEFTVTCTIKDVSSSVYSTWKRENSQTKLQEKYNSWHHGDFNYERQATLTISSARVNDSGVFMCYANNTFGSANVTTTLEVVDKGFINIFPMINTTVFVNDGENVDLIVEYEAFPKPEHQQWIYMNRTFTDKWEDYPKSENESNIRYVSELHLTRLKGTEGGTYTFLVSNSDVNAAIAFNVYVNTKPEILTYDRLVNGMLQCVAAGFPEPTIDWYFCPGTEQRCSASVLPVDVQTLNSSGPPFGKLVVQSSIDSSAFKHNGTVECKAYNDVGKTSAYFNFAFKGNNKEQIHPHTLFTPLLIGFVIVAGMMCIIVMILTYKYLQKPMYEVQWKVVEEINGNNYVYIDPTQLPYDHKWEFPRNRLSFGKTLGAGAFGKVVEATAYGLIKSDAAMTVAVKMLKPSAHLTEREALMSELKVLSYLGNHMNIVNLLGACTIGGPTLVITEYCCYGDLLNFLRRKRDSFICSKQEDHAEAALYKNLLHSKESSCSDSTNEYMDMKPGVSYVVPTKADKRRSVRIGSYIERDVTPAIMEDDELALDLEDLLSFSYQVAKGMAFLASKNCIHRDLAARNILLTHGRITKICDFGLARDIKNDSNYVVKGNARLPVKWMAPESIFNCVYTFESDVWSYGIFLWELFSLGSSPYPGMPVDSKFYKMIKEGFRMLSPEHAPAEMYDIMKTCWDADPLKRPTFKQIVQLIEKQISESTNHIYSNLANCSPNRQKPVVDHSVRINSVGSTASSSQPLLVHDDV

On to `O=C(Nc1cc(-c2cn(CCNc3c4c(nc5ccccc35)CCCC4)nn2)ccn1)Nc1cccc2c1C1CCCCN1C2=O` (racemic), for which the Activity was 68% in assay [1]; 68% in [2]; 74% in assay [3]; 9.9% in assay [4]; 84% in assay [5]; 9.5% in [6]. The Activity is 2.6% in assay [7]; 38% in assay [8]; 74% in [9]; 70% in assay [10]; 100% in [11]; 90% in assay [12]. The Activity in [13] was 69%; in assay [14] it was 100%; in [15], 54%; in assay [16] it was 44%; in assay [17], 100%; in assay [18], 80%. In addition, the Activity came out at 14% in [19]; 38% in assay [20]; 16% in assay [21]; 0.55% in assay [22]; 93% in assay [23]; 94% in assay [24].
